Measured values published in patent US5827720A, “α-glucosidase, and a process for producing the same” (priority 1995, dated 1998).

test system: α-glucosidase (the present enzyme) from Bacillus sp. KS-108a (FERM BP-5337); experiment: Km value by Lineweaver-Burk plotting; type: biochemical; conditions: pH 7.0, 37° C., read-out: Km (PNPG as substrate)
Description: The measurement of the titer of the present enzyme was carried out in the following manner. The amount of the enzyme causing 1 μ mol paranitrophenol per minute to be released from PNPG was assumed as 1 U of the enzyme. (Preparation of a substrate solution, a buffer, a reaction terminating solution, and an enzyme diluent)
(§1) First, 0.25 ml of Solution 1 and 0.5 ml of Solution 2 were mixed and pre-incubated at 37° C. for 5 minutes, and then the solution was mixed with 0.25 ml enzyme solution (about 0.005 to 0.03 U/ml) and reacted accurately for 15 minutes at 37° C.
(§2) Then, the reaction was stopped by adding 1 ml of Solution 3 to the reaction solution and the paranitrophenol thus formed was colored. This sample was measured for absorbance at 400 nm in a spectrophotometer (U-2000A, Hitachi Ltd.).

Row | SMILES | Km
1 | O=[N+]([O-])c1ccc(O[C@H]2O[C@H](CO)[C@@H](O)[C@H](O)[C@H]2O)cc1 [PNPG, paranitrophenyl-α-D-glucopyranoside] | 55 µM

test system: α-glucosidase (the present enzyme) from Bacillus sp. KS-108a (FERM BP-5337); experiment: not given; type: biochemical; conditions: 0.01 ml of 22 mM inhibitor added to 0.1 ml enzyme in 100 mM HEPES-NaOH pH 7.0 with 0.2% BSA, 25° C., 1 hour; then diluted 100-fold, activity on PNPG; control = 100
Description: as §1, §2
The effect of treatment with various inhibitors was evaluated in the following manner.
0.1 ml of 0.0667 mg/ml of the present enzyme in 100 mM HEPES-NaOH buffer, pH 7.0 containing 0.2% BSA was added to 0.01 ml of 22 mM inhibitor (1.1% in the case of a surfactant as inhibitor) and incubated at 25° C. for 1 hour. Then, the sample was diluted 100-fold with 10 mM potassium phosphate buffer (pH 7.0) containing 0.2% BSA, and the remaining activity was determined in the same manner as above in titer measurement.

Row | SMILES | remaining activity (%)
2 | c1cnc2c(c1)ccc1cccnc12 [o-phenanthroline] | 99.4%
3 | O[C@H](CS)[C@H](O)CS (racemic) [dithiothreitol] | 105.4%
4 | [N-]=[N+]=[N-] [sodium azide] | 105.0%
5 | O=C(O)c1cc[c]([Hg][Cl])cc1 [PCMB, p-chloromercuribenzoic acid] | 97.7%
6 | CCN1C(=O)C=CC1=O [N-ethylmaleimide] | 107.5%
7 | O=C(O)c1ccccc1[N+](=O)[O-] [2-nitrobenzoic acid] | 102.7%
8 | OCCS [2-mercaptoethanol] | 99.6%

same assay, conditions: 22 mM inhibitor stock, 25° C., 1 hour

Row | SMILES | effect of treatment with inhibitor on the enzyme (in words)
9 | O=C(O)c1cc[c]([Hg][Cl])cc1 [PCMB, p-chloromercuribenzoic acid] | not affected
10 | CCN1C(=O)C=CC1=O [N-ethylmaleimide] | not affected

same assay, conditions: pH 7

Row | SMILES | remaining activity (%)
11 | O=C(O)CI [monoiodoacetic acid] | 98.5%
12 | N[C@@H](CCC(=O)N[C@@H](CS)C(=O)NCC(=O)O)C(=O)O [glutathione] | 102.5%
13 | O=C(O)CN(CCN(CC(=O)O)CC(=O)O)CC(=O)O [EDTA-2Na] | 106.4%
